Experimental findings from PMC11359702, “Synthesis and Biochemical Evaluation of Ethanoanthracenes and Related Compounds: Antiproliferative and Pro-Apoptotic Effects in Chronic Lymphocytic Leukemia (CLL)” (Pharmaceuticals, 2024) are described below.

Read-outs that look alike come from different tables or passages of the source.

Series [1] concerns HG-3 cells. The note with it: 10 µM.
Series [2] deals with PGA-1 cells. As to conditions: 10 µM.
The nature of series [3]: HPLC stability study in phosphate buffers. The format is physicochemical. The note with it: for remaining at 24 h, 14.6 µg/mL / half-life at 14.6 µg/mL: phosphate buffer, 37 °C; for remaining at 24 h, 14.6 µg/mL: HPLC. In a few lines: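 Compound stock (5 mg in 10 mL 80:20 acetonitrile–water) added to phosphate buffers at pH 4, 7.4 and 9 and held at 37 °C. Sampled over 24 h (0 min to 24 h) and analysed by C18 HPLC with UV detection at 254 nm; single experiments.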

Series [4] concerns HG-3 cells. Briefly: LDH cytotoxicity assay (CytoTox 96). As to conditions: HG-3, 10 µM, 24 h, lysis solution = 100%. The format is cell-based. From the text: (§1) The lactate dehydrogenase (LDH) assay is used to assess the membrane integrity of cells as a function of the cytoplasmic LDH released. The loss of cell membrane integrity (due to cytotoxic insult) is detectable through LDH release into the cell growth medium. The assay is initiated via the reduction in cellular co-factor NAD^+ to NADH catalyzed via the LDH enzyme. Newly formed NADH catalyzes the acidic reduction in iodonitrotetrazolium chloride (INT) to the highly colored formazan (red) (mediated via the diaphorase enzyme). […] At the 10-µM treatment concentration, mild to moderate cytotoxicity (19–47%) was observed. […] Cytotoxicity remained low to mild at 1 µM (4–18%) with 23a displaying the lowest LDH release (4%).
(§2) Following the treatment of the HG-3 and PGA-1 cells at 10 µM for 24 hr, the amount of LDH released was determined using an LDH assay kit from Promega (G1780). Cell lysis solution = 100% cell lysis and LDH release). Data are presented as % cell death at a concentration of 10 µM. Cells were treated with ethanoanthracene compounds 20a, 20f, 23a and 25n (1 µM and 10 µM) for 24 h. Values are shown as the mean of three independent experiments.
(§3) The cytotoxicity of the selected compounds 20a, 20f, 23a and 25n was determined using the CytoTox 96 non-radioactive cytotoxicity assay (Promega Corporation; 2800 Woods Hollow Road, Madison, WI, USA). CLL cells HG-3 and PGA-1 were incubated for 24 h and then treated with the selected compounds 20a, 20f, 23a and 25n at 10-µM and 1-µM concentrations, following the protocol outlined above in the cell viability assay. After 24 h, the lysis solution (10×) (20 µL) was added, and the cells were incubated for a further 1 h to ensure complete cell death. Supernatant (50 µL) was removed from each well and transferred to a clean 96-well plate. “Substrate mix” (50 µL) was added, and the plate was stored in the dark at 20 °C for 30 min. “Stop solution” (50 µL) was added to each well, and the absorbance at 490 nm was recorded using a Dynatech MR5000 plate reader; the % cell death was determined relative to the control cell lysis solution.

For series [5], the system named is PGA-1 cells. The experiment in a line: LDH cytotoxicity assay (CytoTox 96). The format is cell-based. As to conditions: 24 h.
From the text: as §1, §2, §3

The test system of the next series is SF295. Briefly: NCI-60 five-dose assay. The format is cell-based. The note with it: Homo sapiens, SF-295. The procedure:
(§4) A number of our most promising compounds identified through preliminary cell viability testing (23c, 23d, 23f, 23h, 23l, 23m, 23n, 23o, 24f, 24l, 25n and 26n) were selected for NCI drug screening in the 60-cell-line panel. The panel includes nine subcategories based on cancer tissue types, which include leukemia, ovarian, central nervous system, breast, lung, prostate, skin, renal and colon cancer. The compounds were initially assessed in a one-dose assay at a fixed treatment concentration of 10 µM. The compounds selected for further investigation were progressed to a five-dose assay across the concentration ranges of 0.01, 0.1, 1, 10 and 100 µM [72]. The endpoints assessed in the screening protocol were GI50, TGI and LC50 [72].

In a further series the test system is T-47D. Briefly: NCI-60 five-dose assay. The format is cell-based. The note with it: Homo sapiens, T47D. The procedure:
as §4

As a reminder, the cell viability is a per cent measure of how many cells are alive, often set against a control. With `O=C(/C=C/C12c3ccccc3C(c3ccccc31)C1C(=O)NC(=O)C12)c1ccc(Cl)cc1` (racemic) [Compound 23l, (E)-9-(3-(4-Chlorophenyl)-3-oxoprop-1-en-1-yl)-9,10-dihydro-9,10-[3,4]epipyrroloanthracene-12,14-dione], the cell viability in the series on HG-3 cells [1] was 0.7%; in the series on PGA-1 cells [2], 5%.

As a reminder, the share remaining is what is left of the initial amount, in per cent. One may read the half-life as the time in which the quantity being followed falls by half. Take `O=C(C=CC12c3ccccc3C(c3ccccc31)C1C(=O)NC(=O)C12)c1ccc(Br)cc1` (stereo not shown) [Compound 23a, 9-(E)-3-(4-Bromophenyl)-3-oxoprop-1-en-1-yl)-9,10-dihydro-9,10-[3,4]epipyrroloanthracene-12,14-dione]: the “recovery at 24 h” value in series [3] (over the pH range studied (pH 4, 7.4 and 9)) was less than 50%. Moreover, the share remaining at 24 h, 14.6 µg/mL in series [3] (pH 4 buffer, read-out: % remaining 24 h pH 4) stood at 3.12%; in series [3] (pH 7.4 buffer, read-out: % remaining 24 h pH 7.4) it was 1.38%; in series [3] (pH 9 buffer, read-out: % remaining 24 h pH 9), 0.48%. The half-life at 14.6 µg/mL in series [3] (pH 4 buffer, read-out: Half-life pH 4 (converted)) was 13.3 h; in series [3] (pH 7.4 buffer, read-out: Half-life pH 7.4 (converted)) it was approximately 7.5 h; in series [3] (pH 9 buffer, read-out: Half-life pH 9 (converted)), approximately 7.5 h. Further, the “LDH release (cytotoxicity, % cell death)” value with HG-3 cells [4] is given as 25%; in the series on PGA-1 cells [5] (PGA-1, 1 µM), 4%; in the series with PGA-1 cells [5] (PGA-1, 10 µM), 23%.

The term GI50 denotes the concentration that inhibits growth by half. For `O=C(C=CC12c3ccccc3C(c3ccccc31)C1C(=O)N(c3ccc(Cl)cc3)C(=O)C12)c1ccccn1` (stereo not shown) [Compound 25n, (E)-13-(4-Chlorophenyl)-9-(3-oxo-3-(pyridin-2-yl)prop-1-en-1-yl)-9,10-dihydro-9,10-[3,4]epipyrroloanthracene-12,14-dione], the GI50 in the series on SF295 was found to be 379 nM; with T-47D it was 312 nM. Besides, the “LDH release (cytotoxicity, % cell death)” value is recorded as 47% in the series on HG-3 cells [4] and 15% with PGA-1 cells [5] (PGA-1, 10 µM).
